By EC50 is commonly meant the concentration that produces a half-maximal response.

The test deals with T1, ER-alpha (WT) (Homo sapiens, UniProt P03372).
T1 construct: endogenous in cells; host or cells: MCF7 breast cancer cells
T1 sequence (P03372 1-595): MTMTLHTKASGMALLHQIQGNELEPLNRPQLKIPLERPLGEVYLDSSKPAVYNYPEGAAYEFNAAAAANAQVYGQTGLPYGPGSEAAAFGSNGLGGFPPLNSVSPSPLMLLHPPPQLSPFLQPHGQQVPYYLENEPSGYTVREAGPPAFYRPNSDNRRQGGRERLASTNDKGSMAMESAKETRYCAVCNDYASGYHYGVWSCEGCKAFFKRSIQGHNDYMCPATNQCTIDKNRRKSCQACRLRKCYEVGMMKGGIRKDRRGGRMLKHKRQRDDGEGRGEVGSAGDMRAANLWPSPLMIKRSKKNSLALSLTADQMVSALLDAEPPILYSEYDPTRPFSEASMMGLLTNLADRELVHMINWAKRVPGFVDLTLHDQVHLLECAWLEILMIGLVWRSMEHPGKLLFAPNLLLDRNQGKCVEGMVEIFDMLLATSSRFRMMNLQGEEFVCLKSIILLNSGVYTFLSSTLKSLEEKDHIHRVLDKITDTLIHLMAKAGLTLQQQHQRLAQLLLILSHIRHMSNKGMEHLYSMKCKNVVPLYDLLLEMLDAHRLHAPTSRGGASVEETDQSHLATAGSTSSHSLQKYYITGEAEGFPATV
The experiment in a line: Breast Cancer Cell ERa High Content Fluorescence Imaging Degradation Assay (MCF7 HCS). It is filed as cell-based. Particulars: MCF7 breast cancer cells, 4 hours incubation; for EC50: inflexion point of curve; for ERalpha (WT) MCF7 HCS (S inf): plateau of the maximal effect, DMSO and Fulvestrant define 0% and 100% changes in ESR1.

In the case of `C[C@]1(c2ccc(OCCN3CC(CF)C3)cc2)c2ccc(O)cc2CCN1CC(F)(F)CO` [Example 129, (S)-2-(2,2-difluoro-3-hydroxypropyl)-1-(4-(2-(3-(fluoromethyl)azetidin-1-yl)ethoxy)phenyl)-1-methyl-1,2,3,4-tetrahydroisoquinolin-6-ol], the EC50 amounted to 2.7 nM and the “ERalpha (WT) MCF7 HCS (S inf)” value is reported as −101%.
Taken in the same sequence, the figures for `C[C@@]1(c2ccc(OCCN3CC(CF)C3)cc2)c2ccc(O)cc2CCN1CC(F)(F)CO` [Example 130, (R)-2-(2,2-difluoro-3-hydroxypropyl)-1-(4-(2-(3-(fluoromethyl)azetidin-1-yl)ethoxy)phenyl)-1-methyl-1,2,3,4-tetrahydroisoquinolin-6-ol] were 0.042 nM and −101%.
Take `Oc1ccc2c(c1)CCN(CC(F)(F)F)[C@H]2c1c(F)cc(OCCN2CC(CF)C2)cc1F` [Example 133, (1R)-1-[2,6-difluoro-4-[2-[3-(fluoromethyl)azetidin-1-yl]ethoxy]phenyl]-2-(2,2,2-trifluoroethyl)-3,4-dihydro-1H-isoquinolin-6-ol]: the midpoint of the response, the EC50, lay at 17 nM and the “ERalpha (WT) MCF7 HCS (S inf)” value is −90%.
For `Oc1ccc2c(c1)CCN(CC(F)(F)F)[C@@H]2c1c(F)cc(OCCN2CC(CF)C2)cc1F` [Example 134, (1S)-1-[2,6-difluoro-4-[2-[3-(fluoromethyl)azetidin-1-yl]ethoxy]phenyl]-2-(2,2,2-trifluoroethyl)-3,4-dihydro-1H-isoquinolin-6-ol], the EC50 worked out at 0.013 nM and the “ERalpha (WT) MCF7 HCS (S inf)” value is given as −98%.
On to `C[C@@H](CN1CCc2cc(O)ccc2[C@]1(C)c1ccc(OCCN2CC(CF)C2)cc1)C(=O)O` [Example 135, (S)-3-((S)-1-(4-(2-(3-(fluoromethyl)azetidin-1-yl)ethoxy)phenyl)-6-hydroxy-1-methyl-3,4-dihydroisoquinolin-2(1H)-yl)-2-methylpropanoic acid], for which the EC50 is no less than 100 nM.
On the same count and under the same terms, next, `C[C@@H](CN1CCc2cc(O)ccc2[C@@]1(C)c1ccc(OCCN2CC(CF)C2)cc1)C(=O)O` [Example 136, (S)-3-((R)-1-(4-(2-(3-(fluoromethyl)azetidin-1-yl)ethoxy)phenyl)-6-hydroxy-1-methyl-3,4-dihydroisoquinolin-2(1H)-yl)-2-methylpropanoic acid]: no less than 100 nM.
In the case of `C[C@H](CN1CCc2cc(O)ccc2[C@@]1(C)c1ccc(OCCN2CC(CF)C2)cc1)C(=O)O` [Example 137, (R)-3-((R)-1-(4-(2-(3-(fluoromethyl)azetidin-1-yl)ethoxy)phenyl)-6-hydroxy-1-methyl-3,4-dihydroisoquinolin-2(1H)-yl)-2-methylpropanoic acid], the EC50 was determined as 40 nM and the “ERalpha (WT) MCF7 HCS (S inf)” value is recorded as −45%.
Consider `C[C@H](CN1CCc2cc(O)ccc2[C@]1(C)c1ccc(OCCN2CC(CF)C2)cc1)C(=O)O` [Example 138, (R)-3-((S)-1-(4-(2-(3-(fluoromethyl)azetidin-1-yl)ethoxy)phenyl)-6-hydroxy-1-methyl-3,4-dihydroisoquinolin-2(1H)-yl)-2-methylpropanoic acid], for which the EC50 is no less than 100 nM.
Same read-out and setting: next, `NC(=O)c1ccc2c(c1)CCN(CC(F)(F)F)[C@H]2c1ccc(OCCN2CC(CF)C2)cc1` [Example 141, (1S)-1-[4-[2-[3-(fluoromethyl)azetidin-1-yl]ethoxy]phenyl]-2-(2,2,2-trifluoroethyl)-3,4-dihydro-1H-isoquinoline-6-carboxamide]: no less than 100 nM.
Consider `NC(=O)c1ccc2c(c1)CCN(CC(F)(F)F)[C@@H]2c1ccc(OCCN2CC(CF)C2)cc1` [Example 142, (1R)-1-[4-[2-[3-(fluoromethyl)azetidin-1-yl]ethoxy]phenyl]-2-(2,2,2-trifluoroethyl)-3,4-dihydro-1H-isoquinoline-6-carboxamide], for which a half-maximal effect (EC50) was put at 29 nM and the “ERalpha (WT) MCF7 HCS (S inf)” value is recorded as −79%.
For `FCC1CN(CCOc2ccc([C@H]3c4ccc(-c5cn[nH]c5)cc4CCN3CC(F)(F)F)cc2)C1` [Example 145, (1S)-1-[4-[2-[3-(fluoromethyl)azetidin-1-yl]ethoxy]phenyl]-6-(1H-pyrazol-4-yl)-2-(2,2,2-trifluoroethyl)-3,4-dihydro-1H-isoquinoline], in that order: no less than 100 nM and −100%.
For `FCC1CN(CCOc2ccc([C@@H]3c4ccc(-c5cn[nH]c5)cc4CCN3CC(F)(F)F)cc2)C1` [Example 146, (1R)-1-[4-[2-[3-(fluoromethyl)azetidin-1-yl]ethoxy]phenyl]-6-(1H-pyrazol-4-yl)-2-(2,2,2-trifluoroethyl)-3,4-dihydro-1H-isoquinoline], in that order: 0.56 nM and −95%.
As for `FCC1CN(CCOc2ccc([C@H]3c4ccc(N5CCOCC5)cc4CCN3CC(F)(F)F)cc2)C1` [Example 147, 4-[(1S)-1-[4-[2-[3-(fluoromethyl)azetidin-1-yl]ethoxy]phenyl]-2-(2,2,2-trifluoroethyl)-3,4-dihydro-1H-isoquinolin-6-yl]morpholine], the EC50 is no less than 100 nM.
`FCC1CN(CCOc2ccc([C@@H]3c4ccc(N5CCOCC5)cc4CCN3CC(F)(F)F)cc2)C1` [Example 148, 4-[(1R)-1-[4-[2-[3-(fluoromethyl)azetidin-1-yl]ethoxy]phenyl]-2-(2,2,2-trifluoroethyl)-3,4-dihydro-1H-isoquinolin-6-yl]morpholine]: the response was half-maximal at 12 nM (EC50) and the “ERalpha (WT) MCF7 HCS (S inf)” value is recorded as −89%.
For `OCc1ccc2c(c1)CCN(CC(F)(F)F)[C@@H]2c1ccc(OCCN2CC(CF)C2)cc1` [Example 150, [(1R)-1-[4-[2-[3-(fluoromethyl)azetidin-1-yl]ethoxy]phenyl]-2-(2,2,2-trifluoroethyl)-3,4-dihydro-1H-isoquinolin-6-yl]methanol], in that order: 1.7 nM and −100%.
`FCC1CN(CCOc2ccc([C@H]3c4ccc(-c5cc[nH]n5)cc4CCN3CC(F)(F)F)cc2)C1` [Example 151, (1S)-1-[4-[2-[3-(fluoromethyl)azetidin-1-yl]ethoxy]phenyl]-6-(1H-pyrazol-3-yl)-2-(2,2,2-trifluoroethyl)-3,4-dihydro-1H-isoquinoline] came in with an EC50 of no less than 100 nM.
For `FCC1CN(CCOc2ccc([C@@H]3c4ccc(-c5cc[nH]n5)cc4CCN3CC(F)(F)F)cc2)C1` [Example 152, (1R)-1-[4-[2-[3-(fluoromethyl)azetidin-1-yl]ethoxy]phenyl]-6-(1H-pyrazol-3-yl)-2-(2,2,2-trifluoroethyl)-3,4-dihydro-1H-isoquinoline], a half-maximal response (EC50) required 17 nM and the “ERalpha (WT) MCF7 HCS (S inf)” value is −91%.
On to `CC1(C)Cc2cc(O)ccc2[C@H](c2ccc(OCCN3CC(CF)C3)cc2)N1CC(F)(F)F` [Example 157, (S)-1-(4-(2-(3-(Fluoromethyl)azetidin-1-yl)ethoxy)phenyl)-3,3-dimethyl-2-(2,2,2-trifluoroethyl)-1,2,3,4-tetrahydroisoquinolin-6-ol], for which the EC50 came to 0.48 nM and the “ERalpha (WT) MCF7 HCS (S inf)” value is −98%.
Regarding `C[C@@H]1Cc2cc(C(C)(C)O)ccc2[C@@H](c2ccc(OCCN3CC(CF)C3)cc2)N1CC(F)(F)F` [Example 161, 2-((1R,3R)-1-(4-(2-(3-(Fluoromethyl)azetidin-1-yl)ethoxy)phenyl)-3-methyl-2-(2,2,2-trifluoroethyl)-1,2,3,4-tetrahydroisoquinolin-6-yl)propan-2-ol], the EC50 turned out to be 11 nM and the “ERalpha (WT) MCF7 HCS (S inf)” value is recorded as −82%.
The molecule `C[C@H]1Cc2cc(C(C)(C)O)ccc2[C@H](c2ccc(OCCN3CC(CF)C3)cc2)N1CC(F)(F)F` [Example 162, 2-((1S,3S)-1-(4-(2-(3-(Fluoromethyl)azetidin-1-yl)ethoxy)phenyl)-3-methyl-2-(2,2,2-trifluoroethyl)-1,2,3,4-tetrahydroisoquinolin-6-yl)propan-2-ol] displayed an EC50 of 280 nM.
In the case of `C[C@H]1Cc2cc(O)ccc2[C@H](c2ccc(OCCN3CC(CF)C3)cc2)N1CC(F)(F)CO` [Example 165, (1S,3S)-2-(2,2-Difluoro-3-hydroxypropyl)-1-(4-(2-(3-(fluoromethyl)azetidin-1-yl)ethoxy)phenyl)-3-methyl-1,2,3,4-tetrahydroisoquinolin-6-ol], the EC50 came out at 0.96 nM and the “ERalpha (WT) MCF7 HCS (S inf)” value was −101%.
Consider `C[C@@H]1Cc2cc(O)ccc2[C@@H](c2ccc(OCCN3CC(CF)C3)cc2)N1CC(F)(F)CO` [Example 166, (1R,3R)-2-(2,2-Difluoro-3-hydroxypropyl)-1-(4-(2-(3-(fluoromethyl)azetidin-1-yl)ethoxy)phenyl)-3-methyl-1,2,3,4-tetrahydroisoquinolin-6-ol], for which a half-maximal response (EC50) required 0.066 nM and the “ERalpha (WT) MCF7 HCS (S inf)” value is listed as −105%.
For `C[C@@H]1Cc2cc(CO)ccc2[C@@H](c2ccc(OCCN3CC(CF)C3)cc2)N1CC(F)(F)CO` [Example 172, 2,2-Difluoro-3-((1R,3R)-1-(4-(2-(3-(fluoromethyl)azetidin-1-yl)ethoxy)phenyl)-6-(hydroxymethyl)-3-methyl-3,4-dihydroisoquinolin-2(1H)-yl)propan-1-ol], in that order: 0.14 nM and −99%.

Values taken from patent US9969732B2, “Tetrahydroisoquinoline estrogen receptor modulators and uses thereof” (Genentech, Inc., priority 2016, dated 2018).
